In PubChem BioAssay AID308 (DTP/NCI, 2004):
Where “and” joins values, the source holds several entries; their conditions need not be identical. Equal values may be shown once. Toxic doses and inconclusive results are not listed.

System: BDF1 mice, L1210 6-MP/6-TG resistant leukemia ip, survival T/C
Experiment: NCI In Vivo Anticancer Drug Screen. Data for tumor model L1210 Leukemia resistant to 6-MP and 6-Thioguanine; NSC 755, NSC 752 (intraperitoneal) in B6D2F1 (BDF1) mice
Conditions: endpoint: mean survival time, higher = longer survival
Experimental: The antitumor activity of compounds was measured in mice bearing transplantable tumors. Survival or tumor size were measured and the results are expressed as the measurement made in the treated group (T) divided by the measurement made in the vehicle treated control group (C). The tumor model used in this assay is L1210 Leukemia resistant to 6-MP and 6-Thioguanine; NSC 755, NSC 752 (intraperitoneal) in B6D2F1 (BDF1) mice

Compound: CSc1ncnc2c1ncn2C1OC(CO)C(O)C1O (centres undefined)
- T/C (dose: 2.0 mg/kg/injection, schedule: Q01DX Z (ip), vehicle: saline): 117 % of control
- T/C (dose: 3.0 mg/kg/injection, schedule: Q01DX015 (ip), vehicle: saline): 119 % of control and 121 % of control
- T/C (dose: 4.0 mg/kg/injection, schedule: Q01DX Z (oral), vehicle: saline): 100 % of control
- T/C (dose: 7.0 mg/kg/injection, schedule: Q01DX015 (ip), vehicle: saline): 158 % of control
- T/C (dose: 7.0 mg/kg/injection, schedule: Q01DX Z (ip), vehicle: saline): 151 % of control
- T/C (dose: 8.0 mg/kg/injection, schedule: Q01DX Z (ip), vehicle: saline): 168 % of control
- T/C (dose: 8.0 mg/kg/injection, schedule: Q01DX Z (oral), vehicle: saline): 107 % of control
- T/C (dose: 10.0 mg/kg/injection, schedule: Q## X032 (ip), vehicle: saline): 114 % of control
- T/C (dose: 12.0 mg/kg/injection, schedule: Q01DX001 (ip), vehicle: alkali diluted with saline): 102 % of control and 103 % of control
- T/C (dose: 12.0 mg/kg/injection, schedule: Q01DX Z (ip), vehicle: saline): 175 % of control
- T/C (dose: 12.0 mg/kg/injection, schedule: Q01DX Z (oral), vehicle: saline): 100 % of control
- T/C (dose: 13.0 mg/kg/injection, schedule: Q02DX008 (ip), vehicle: saline): 122 % of control
- T/C (dose: 13.0 mg/kg/injection, schedule: Q## X004 (ip), vehicle: saline): 108 % of control
- T/C (dose: 16.0 mg/kg/injection, schedule: Q01DX015 (ip), vehicle: saline): 152 % of control and 166 % of control
- T/C (dose: 16.0 mg/kg/injection, schedule: Q01DX Z (ip), vehicle: clinical formulation): 123 % of control
- T/C (dose: 16.0 mg/kg/injection, schedule: Q01DX Z (ip), vehicle: saline): 191 % of control
- T/C (dose: 16.0 mg/kg/injection, schedule: Q01DX Z (oral), vehicle: saline): 111 % of control
- T/C (dose: 18.0 mg/kg/injection, schedule: Q01DX001 (ip), vehicle: alkali diluted with saline): 116 % of control and 103 % of control
- T/C (dose: 18.0 mg/kg/injection, schedule: Q01DX001 (ip), vehicle: saline): 112 % of control and 98 % of control
- T/C (dose: 21.0 mg/kg/injection, schedule: Q01DX015 (ip), vehicle: saline): 159 % of control
- T/C (dose: 24.0 mg/kg/injection, schedule: Q01DX015 (ip), vehicle: saline): 163 % of control
- T/C (dose: 24.0 mg/kg/injection, schedule: Q01DX Z (ip), vehicle: saline): 119 % of control
- T/C (dose: 24.0 mg/kg/injection, schedule: Q01DX Z (oral), vehicle: saline): 113 % of control and 120 % of control
- T/C (dose: 24.0 mg/kg/injection, schedule: Q## X032 (ip), vehicle: saline): 150 % of control
- T/C (dose: 26.0 mg/kg/injection, schedule: Q01DX001 (ip), vehicle: alkali diluted with saline): 118 % of control and 111 % of control
- T/C (dose: 26.0 mg/kg/injection, schedule: Q01DX001 (ip), vehicle: saline): 104 % of control
- T/C (dose: 27.0 mg/kg/injection, schedule: Q01DX001 (ip), vehicle: saline): 114 % of control and 108 % of control
- T/C (dose: 32.0 mg/kg/injection, schedule: Q01DX Z (ip), vehicle: saline): 121 % of control
- T/C (dose: 32.0 mg/kg/injection, schedule: Q01DX Z (oral), vehicle: saline): 120 % of control and 106 % of control
- T/C (dose: 32.0 mg/kg/injection, schedule: Q## X032 (ip), vehicle: saline): 152 % of control and 158 % of control
- T/C (dose: 36.0 mg/kg/injection, schedule: Q01DX015 (ip), vehicle: saline): 114 % of control
- T/C (dose: 37.0 mg/kg/injection, schedule: Q01DX Z (ip), vehicle: saline): 95 % of control
- T/C (dose: 40.0 mg/kg/injection, schedule: Q01DX001 (ip), vehicle: alkali diluted with saline): 119 % of control and 106 % of control
- T/C (dose: 40.0 mg/kg/injection, schedule: Q01DX001 (ip), vehicle: saline): 117 % of control and 98 % of control and 108 % of control
- T/C (dose: 44.0 mg/kg/injection, schedule: Q02DX008 (ip), vehicle: saline): 158 % of control
- T/C (dose: 45.0 mg/kg/injection, schedule: Q01DX015 (ip), vehicle: saline): 92 % of control and 94 % of control
- T/C (dose: 45.0 mg/kg/injection, schedule: Q## X004 (ip), vehicle: saline): 157 % of control
- T/C (dose: 48.0 mg/kg/injection, schedule: Q01DX Z (ip), vehicle: saline): 96 % of control
- T/C (dose: 48.0 mg/kg/injection, schedule: Q01DX Z (oral), vehicle: saline): 95 % of control and 103 % of control
- T/C (dose: 48.0 mg/kg/injection, schedule: Q## X032 (ip), vehicle: saline): 164 % of control and 171 % of control
- T/C (dose: 50.0 mg/kg/injection, schedule: Q01DX Z (ip), vehicle: saline): 90 % of control
- T/C (dose: 54.0 mg/kg/injection, schedule: Q01DX001 (ip), vehicle: saline): 109 % of control
- T/C (dose: 60.0 mg/kg/injection, schedule: Q01DX001 (ip), vehicle: saline): 119 % of control and 107 % of control
- T/C (dose: 61.0 mg/kg/injection, schedule: Q01DX001 (ip), vehicle: alkali diluted with saline): 113 % of control
- T/C (dose: 61.0 mg/kg/injection, schedule: Q01DX001 (ip), vehicle: saline): 113 % of control
- T/C (dose: 67.0 mg/kg/injection, schedule: Q## X004 (ip), vehicle: saline): 162 % of control
- T/C (dose: 72.0 mg/kg/injection, schedule: Q## X032 (ip), vehicle: saline): 165 % of control and 166 % of control
- T/C (dose: 81.0 mg/kg/injection, schedule: Q01DX001 (ip), vehicle: saline): 124 % of control
- T/C (dose: 90.0 mg/kg/injection, schedule: Q01DX001 (ip), vehicle: saline): 109 % of control
- T/C (dose: 92.0 mg/kg/injection, schedule: Q01DX001 (ip), vehicle: alkali diluted with saline): 123 % of control and 111 % of control
- T/C (dose: 100.0 mg/kg/injection, schedule: Q02DX008 (ip), vehicle: saline): 99 % of control
- T/C (dose: 100.0 mg/kg/injection, schedule: Q## X004 (ip), vehicle: saline): 170 % of control
- T/C (dose: 108.0 mg/kg/injection, schedule: Q## X032 (ip), vehicle: saline): 116 % of control and 98 % of control
- T/C (dose: 138.0 mg/kg/injection, schedule: Q01DX001 (ip), vehicle: alkali diluted with saline): 116 % of control
- T/C (dose: 138.0 mg/kg/injection, schedule: Q01DX001 (ip), vehicle: saline): 118 % of control
- T/C (dose: 150.0 mg/kg/injection, schedule: Q## X004 (ip), vehicle: saline): 164 % of control
- T/C (dose: 207.0 mg/kg/injection, schedule: Q01DX001 (ip), vehicle: alkali diluted with saline): 119 % of control and 124 % of control
- T/C (dose: 300.0 mg/kg/injection, schedule: Q01DX001 (ip), vehicle: saline): 111 % of control

Compound: CCCCCCCSc1ncnc2c1ncn2CO
- T/C (dose: 150.0 mg/kg/injection, schedule: Q01DX009 (ip), vehicle: other): 96 % of control
- T/C (dose: 200.0 mg/kg/injection, schedule: Q01DX009 (ip), vehicle: other): 95 % of control
- T/C (dose: 300.0 mg/kg/injection, schedule: Q01DX009 (ip), vehicle: other): 100 % of control
- T/C (dose: 400.0 mg/kg/injection, schedule: Q01DX009 (ip), vehicle: other): 86 % of control

Compound: O=C(Nc1ccc(C2=NCCN2)cc1)c1ccc(C(=O)Nc2ccc(C3=NCCN3)cc2)cc1
- T/C (dose: 18.75 mg/kg/injection, schedule: Q01DX Z (ip), vehicle: carboxymethylcellulose (CMC)): 154 % of control
- T/C (dose: 25.0 mg/kg/injection, schedule: Q01DX Z (ip), vehicle: carboxymethylcellulose (CMC)): 151 % of control
- T/C (dose: 27.0 mg/kg/injection, schedule: Q02DX010 (ip), vehicle: carboxymethylcellulose (CMC)): 312 % of control
- T/C (dose: 40.0 mg/kg/injection, schedule: Q02DX010 (ip), vehicle: carboxymethylcellulose (CMC)): 317 % of control
- T/C (dose: 50.0 mg/kg/injection, schedule: Q01DX Z (ip), vehicle: carboxymethylcellulose (CMC)): 219 % of control
- T/C (dose: 60.0 mg/kg/injection, schedule: Q02DX010 (ip), vehicle: carboxymethylcellulose (CMC)): 296 % of control
- T/C (dose: 75.0 mg/kg/injection, schedule: Q01DX Z (ip), vehicle: carboxymethylcellulose (CMC)): 188 % of control and 232 % of control
- T/C (dose: 90.0 mg/kg/injection, schedule: Q02DX010 (ip), vehicle: carboxymethylcellulose (CMC)): 280 % of control
- T/C (dose: 100.0 mg/kg/injection, schedule: Q01DX Z (ip), vehicle: carboxymethylcellulose (CMC)): 288 % of control and 295 % of control
- T/C (dose: 135.0 mg/kg/injection, schedule: Q02DX010 (ip), vehicle: carboxymethylcellulose (CMC)): 312 % of control
- T/C (dose: 150.0 mg/kg/injection, schedule: Q01DX Z (ip), vehicle: carboxymethylcellulose (CMC)): 300 % of control
- T/C (dose: 200.0 mg/kg/injection, schedule: Q01DX Z (ip), vehicle: carboxymethylcellulose (CMC)): 186 % of control
